Measured values as given in patent US12180461B2 (priority 2018, dated 2024).
Values after ≈ are worked out from the molar mass of the structure shown. Where two headings read alike, the source gives them in different places.

Columns and labels:
[1] = tested on: Legionella pneumophila isolates; experiment: microbe, parasite or virus in culture; format: cell-based; conditions: for MIC50 / MIC90: Legionella pneumophila; for MIC50: read-out: MIC50 (average); for MIC90: read-out: MIC90 (average)
[2] = tested on: Staphylococcus aureus (ATCC strain 29213); experiment: MIC of quality control strain on Mueller-Hinton agar and on Lasarus medium; format: cell-based
Legionella = format: cell-based
rats = conditions: rat, in vivo, po
[3] = tested on: various strains of L. pneumophila; format: cell-based
[4] = 92 Legionella pneumophila isolates on Lasarus solid medium
[5] = ATCC29213, S. aureus ATCC 29213 on Lasarus medium, read-out: MIC100 (on Lasarus medium)
[6] = ATCC29213, S. aureus ATCC 29213 on standard Mueller-Hinton agar, read-out: MIC100 (on M-Hinton)
[7] = average across 92 Legionella pneumophila isolates on Lasarus solid medium

O=C(N[C@H](CO)[C@H](O)c1ccc([N+](=O)[O-])cc1)C(Cl)Cl [Chloramphenicol]
Ranges (MIC100) [1, 4]: 0.25 to 1 µg/mL
MIC50 [1]: 0.5 µg/mL (≈ 1.55 µM)
MIC90 [1]: 0.5 µg/mL (≈ 1.55 µM)
MIC [2, 5]: 4 µg/mL
MIC [2, 6]: 4 µg/mL

O=C(O)c1cn(C2CC2)c2cc(N3CCNCC3)c(F)cc2c1=O [Ciprofloxacin]
Ranges (MIC100) [1, 4]: 0.008 to 0.06 µg/mL
MIC50 [1]: 0.03 µg/mL (≈ 0.0905 µM)
MIC90 [1]: 0.06 µg/mL (≈ 0.181 µM)

[Ca+2].[Cl-].[Cl-] [CaCl2, calcium chloride]
MIC50 (Legionella): 9 mM
MIC90 (Legionella): 18 mM
LD50 (rats): 1000 mg/kg

CC[C@H]1OC(=O)[C@H](C)[C@@H](O[C@H]2C[C@@](C)(OC)[C@@H](O)[C@H](C)O2)[C@H](C)[C@@H](O[C@@H]2O[C@H](C)C[C@H](N(C)C)[C@H]2O)[C@](C)(O)C[C@@H](C)CN(C)[C@H](C)[C@@H](O)[C@]1(C)O [Azithromycin]
Ranges (MIC100) [1, 4]: 0.008 to 0.25 µg/mL
MIC50 [1]: 0.03 µg/mL (≈ 0.0401 µM)
MIC90 [1]: 0.125 µg/mL (≈ 0.167 µM)
MIC [2, 5]: 2 µg/mL
MIC [2, 6]: 2 µg/mL
number of strains that could grow (on average) ([3]; BCYE, antibiotic 0.25 μg/ml): more than 20 strains
number of strains that could grow (on average) ([3]; BCYE, antibiotic 0.5 μg/ml): > 5 strains
number of strains tested that could grow (on average) ([3]; Lasarus medium, antibiotic 0.03 μg/ml): ~20 strains
number of strains tested that could grow ([3]; Lasarus medium, antibiotic 0.125 μg/ml): None
number of strains that could grow (on average) ([3]; medium (Lasarus), antibiotic 0.06 μg/ml): less than 15 strains

[Cl-].[Rb+] [RbCl, rubidium chloride]
MIC50 (Legionella): 150 mM
MIC90 (Legionella): 150 mM
LD50 (rats): 4440 mg/kg

CC1(C)S[C@@H]2[C@H](NC(=O)[C@H](N)c3ccccc3)C(=O)N2[C@H]1C(=O)O [Ampacilin]
MIC50 (average) [1]: 8 µg/mL (≈ 22.9 µM)
MIC90 (average) [1]: 32 µg/mL (≈ 91.6 µM)
Ranges (MIC100) [1]: 1 to 32 µg/mL

[Ba+2].[Cl-].[Cl-] [BaCl2, barium chloride]
MIC50 (Legionella): 4 mM
MIC90 (Legionella): 9 mM
LD50 (rats): 78 mg/kg

CO[C@H]1/C=C/O[C@@]2(C)Oc3c(C)c(O)c4c(O)c(c(/C=N/N5CCN(C)CC5)c(O)c4c3C2=O)NC(=O)/C(C)=C\C=C\[C@H](C)[C@H](O)[C@@H](C)[C@@H](O)[C@@H](C)[C@H](OC(C)=O)[C@@H]1C [Rifampacin]
Ranges (MIC100) [1, 4]: 0.002 to 0.008 µg/mL
MIC50 [1]: 0.004 µg/mL (≈ 0.00486 µM)
MIC90 [1]: 0.008 µg/mL (≈ 0.00972 µM)
MIC [2, 5]: 0.016 µg/mL
MIC [2, 6]: 0.016 µg/mL
number of strains that could grow (on average) ([3]; BCYE, antibiotic 0.06 μg/ml): more than 30 strains
number of strains that could grow (on average) ([3]; BCYE, antibiotic 0.125 μg/ml): more than 15 strains
number of strains tested that could grow (on average) ([3]; Lasarus medium, antibiotic 0.004 μg/ml, quadruplicate): ~35 strains
number of strains that could grow (on average), reduced number ([3]; medium, antibiotic concentration printed as 0.004 μg/ml (second mention)): less than 15 strains

beryllium sulfate [BeSO4]
MIC50 (Legionella): 4 mM
MIC90 (Legionella): 4 mM

[Cl-].[Na+] [NaCl, sodium chloride]
MIC50 (Legionella): 150 mM
MIC90 (Legionella): 150 mM
LD50 (rats): 3000 mg/kg

Gentamycin
Ranges (MIC100) [1, 4]: 0.06 to 1 µg/mL
MIC50 (average) [1, 7]: 0.25 µg/mL
MIC90 (average) [1, 7]: 0.5 µg/mL

C[C@H]1COc2c(N3CCN(C)CC3)c(F)cc3c(=O)c(C(=O)O)cn1c23 [Levofloxacin]
Ranges (MIC100) [1, 4]: 0.008 to 0.06 µg/mL
MIC50 [1]: 0.03 µg/mL (≈ 0.083 µM)
MIC90 [1]: 0.06 µg/mL (≈ 0.166 µM)
MIC [2, 5]: 0.25 µg/mL
MIC [2, 6]: 0.25 µg/mL
number of strains that could grow (on average) ([3]; BCYE, antibiotic 1 μg/ml): more than 25 strains
number of strains that could grow (on average) ([3]; BCYE, antibiotic 2 μg/ml): more than 15 strains
number of strains tested that could grow (on average) ([3]; Lasarus medium, antibiotic 0/03 μg/ml): ~30 strains

[Cl-].[Cl-].[Sr+2] [SrCl, strontium chloride]
MIC50 (Legionella): 18 mM
MIC90 (Legionella): 18 mM
LD50 (rats): 2250 mg/kg

CN(C)[C@@H]1C(O)=C(C(N)=O)C(=O)[C@@]2(O)C(O)=C3C(=O)c4c(O)cccc4[C@@](C)(O)[C@H]3C[C@@H]12 [Tetracycline]
Ranges (MIC100) [1, 4]: 32 to 128 µg/mL
MIC50 [1]: 128 µg/mL (≈ 288 µM)
MIC90 [1]: 128 µg/mL (≈ 288 µM)

[Cl-].[Li+] [LiCl, lithium chloride]
MIC50 (Legionella): 75 mM
MIC90 (Legionella): 75 mM
LD50 (rats): 526 mg/kg

[Cl-].[Cl-].[Mg+2] [MgCl, magnesium chloride]
MIC50 (Legionella): 37 mM
MIC90 (Legionella): 75 mM
LD50 (rats): 2800 mg/kg

[Cl-].[Cs+] [CsCl, caesium chloride]
MIC50 (Legionella): 18 mM
MIC90 (Legionella): 37 mM
LD50 (rats): 2600 mg/kg
